In assay [1] the test system is CLL patients. The following applies: plasma, previous studies; cited from earlier work.
Assay [2] deals with DB cell line (GCB subtype DLBCL). The assay can be described thus: CCL3/CCL4 secretion by DLBCL cell line, supernatant ELISA. It counts as cell-based, human. As to conditions: 1 μM ibrutinib, supernatant after 24 h. As for the experimental part:
(§1) For BCR stimulation, culture medium was supplemented with 10 μg/mL anti-IgM (polyclonal goat F(ab′)2 fragments to human IgM, MP Biomedicals) for the indicated time periods.
(§2) All DLBCL cell lines were grown in RPMI 1640 medium (Hyclone) supplemented with glutamine, beta-mercaptoethanol, penicillin/streptomycin and 10% fetal bovine serum, except for OCI-Ly3 and OCI-Ly10, which were maintained in Iscove's modified Dulbecco's medium (Gibco) supplemented with beta-mercaptoethanol, penicillin/streptomycin and 20% heparinized human plasma. All cell lines were grown in a humidified 5% CO2 incubator at 37° C. DLBCL cell lines included TMD8, HBL-1, OCI-Ly10, OCI-Ly3, DB and OCI-Ly19.
(§3) Cell culture supernatant samples from DLBCL cell lines were used after 24 h for the measurement of CCL3 and CCL4 levels for quantification by ELISA using Quantikine Kits (R&D Systems). The absorbance was recorded by a microplate reader (ELx808, Bio-Tek Instruments), and data collection and analysis were performed using Gen5 software Version 1.08 (Bio-Tek Instruments).
(§4) Peripheral blood serum samples were obtained from the tissue bank of the Department of Lymphoma and Myeloma at MDACC or from the University of Nebraska Medical Center. All serum samples were aliquoted and stored at the time of initial referral to each institution. Serum and cell culture supernatant CCL3 and CCL4 levels were quantified by ELISA using Quantikine Kits (R&D Systems) and was conducted at MDACC (Sivina M, Hartmann E, Kipps T J, et al. “CCL3 (MIP-1alpha) plasma levels and the risk for disease progression in chronic lymphocytic leukemia.” Blood. 2011; 117(5):1662-1669.). The absorbance was recorded on a microplate reader (ELx808, Bio-Tek Instruments), and data collection and analysis were performed using Gen5 software Version 1.08 (Bio-Tek Instruments).

Assay [3] relates to HBL-1 cell line (ABC subtype DLBCL). The assay is described as above. The assay is classed as cell-based, human. As to conditions: for mean supernatant concentration of CCL3: 24 h. As for the experimental part:
as §1, §2, §3, §4

Assay [4] deals with OCI-Ly10 cell line (ABC subtype DLBCL). The description is as above. It counts as cell-based, human. As to conditions: 1 μM ibrutinib, supernatant after 24 h. As for the experimental part: as §1, §2, §3, §4
In assay [5] the test system is OCI-Ly19 cell line (GCB subtype DLBCL). The assay is described as above. It counts as cell-based, human. The following applies: 1 μM ibrutinib, supernatant after 24 h. As for the experimental part: as §1, §2, §3, §4
For assay [6], the system named is OCI-Ly3 cell line (ABC subtype DLBCL, CARD11 mutation). The assay is described as above. The assay is classed as cell-based, human. The following applies: 1 μM ibrutinib, supernatant after 24 h. As for the experimental part:
as §1, §2, §3, §4

For assay [7], the system named is TMD8 cell line (ABC subtype DLBCL). The assay is described as above. The assay is classed as cell-based, human. As for the experimental part: as §1, §2, §3, §4
Assay [8] concerns DLBCL patients. The assay can be described thus: Serum CCL3 and CCL4 pre- and post-treatment in patients with DLBCL. The assay is classed as in vivo, human. The following applies: in most patients. An excerpt:
The study included 102 patients from MD Anderson Cancer Center (MDACC) with newly diagnosed DLBCL between January 2009 and February 2011 (MDA test cohort). In addition, a second set of 51 patients from MDACC with newly diagnosed DLBCL was included for validation analysis (MDA validation cohort). Nineteen patients with newly diagnosed DLBCL from the University of Nebraska were also included in the correlation analysis between serum CCL3/CCL4 levels and GCB vs. non-GCB subtype (Nebraska cohort). […] Demographics and other clinical parameters for both MDACC test and validation cohort were obtained at the time of initial referral to MDACC. DLBCL diagnosis was established by institutional pathologists according to the WHO classification. Immunophenotypic classification (GCB vs. non-GCB subtype) of DLBCL was determined by Hans criteria. […]
Peripheral blood serum samples were obtained from the tissue bank of the Department of Lymphoma and Myeloma at MDACC or from the University of Nebraska Medical Center. […] Serum and cell culture supernatant CCL3 and CCL4 levels were quantified by ELISA using Quantikine Kits (R&D Systems) and was conducted at MDACC (Sivina M, Hartmann E, Kipps T J, et al. “CCL3 (MIP-1alpha) plasma levels and the risk for disease progression in chronic lymphocytic leukemia.” Blood. 2011; 117(5):1662-1669.). […]

Setting [9] is: 1 μM ibrutinib, alone or with 10 μg/mL anti-IgM, supernatant after 24 h.
Setting [10] is: ibrutinib titration (3.1-1000 nM) in combination with 10 μg αIgM.

Entries after “also recorded” stand apart in the source; their conditions may differ.

Consider `CC[C@H](Nc1ncnc2[nH]cnc12)c1nc2cccc(F)c2c(=O)n1-c1ccccc1` [GS-1101/CAL-101/idelalisib], for which the “elevated CCL3 and CCL4 levels after pharmacologic inhibition of BCR signaling” value in assay [1] is recorded as “rapidly normalize”.
As for `C=CC(=O)N1CCC[C@@H](n2nc(-c3ccc(Oc4ccccc4)cc3)c3c(N)ncnc32)C1` [ibrutinib, 1-((R)-3-(4-amino-3-(4-phenoxyphenyl)-1H-pyrazolo[3,4-d]pyrimidin-1-yl)piperidin-1-yl)prop-2-en-1-one], the “CCL3 level after ibrutinib treatment” value in assay [2] is on record as “did not respond; also recorded: unaffected”; in assay [3] (setting [9]), “abrogated; also recorded: significantly decreased”; in assay [4] it was “sensitive to inhibition; also recorded: significant decrease”; in assay [5], “did not respond; also recorded: unaffected”; in assay [6], “did not respond; also recorded: unaffected”; in assay [7] (setting [9]), “abrogated; also recorded: significantly decreased”. Further, the “CCL4 level after ibrutinib treatment” value in assay [2] was “did not respond; also recorded: unaffected”; in assay [3] (setting [9]), “abrogated; also recorded: significantly decreased”; in assay [4], “sensitive to inhibition; also recorded: significant decrease”; in assay [5] it was “did not respond; also recorded: unaffected”; in assay [6], “did not respond; also recorded: unaffected”; in assay [7] (setting [9]) it was “abrogated; also recorded: significantly decreased”. The “mean supernatant concentration of CCL3” value in assay [3] (1 μM ibrutinib alone (unstimulated cells), baseline 1705.5 pg/mL) was 313.2 (±6.8) pg/mL; in assay [3] (1 μM ibrutinib in combination with 10 μg/mL anti-IgM), 2029.16 (±26.9) pg/mL. Also, the “ibrutinib concentration resulting in the lowest CCL3 level” value in assay [3] (setting [10]) is 500 nM. Besides, the “ibrutinib concentration resulting in the lowest CCL4 level” value in assay [3] (setting [10]) amounted to 500 nM. For the same molecule, the “CCL3 level after BCR stimulation, ibrutinib titration” value in assay [7] (1000 nM ibrutinib with 10 μg αIgM, decreased level maintained at 500 nM and 100 nM) is reported as “decreased”. For the same molecule, in assay [7] (1000 nM ibrutinib with 10 μg αIgM, decreased level maintained at 500 nM, 100 nM and 50 nM), the “CCL4 level after BCR stimulation, ibrutinib titration” value was “decreased”. The “high concentrations of serum CCL3 and CCL4 after therapy” value in assay [8] is recorded as “returned to low levels”.

These data come from patent US20150238490A1 (Pharmacyclics, Inc., priority 2014, published 2015).
